Source: US10287268B2, “Imidazolyl kinase inhibitors and uses thereof” (Dana-Farber Cancer Institute, Inc., priority 2014, dated 2019)
pIC50: −log10 of the molar value.

Columns and labels:
Format in all cases: biochemical
ABL = ABL (Homo sapiens (Human), UniProt P00519); experiment: Radiometric [γ-32P]ATP protein kinase assay (Hastie et al.), % activity vs DMSO control; settings: read-out: Activity of the protein kinase when treated with compound I-1 (% control)
Method: (§1) In another set of experiments, the activities of the compounds described herein against various protein kinases were determined according to the methods reported in Hastie et al., Nature Protocols, 2006, 1, 968-971.
(§2) This buffer consisted of 50 mM Tris-HCl, pH 7.5, 0.1 mM EGTA, 1 mg ml^−1 bovine serum albumin and 0.1% (vol/vol) 2-mercaptoethanol.
(§3) An assay buffer of 500 mM Tris-HCl, pH 7.5, 1 mM EGTA, and 100 mM magnesium acetate was used for assay of a wide variety of protein kinases. In some experiments, other cofactors were included (e.g., calcium ions and calmodulin were included for assay of calcium-calmodulin-dependent protein kinases).
(§4) The specific activity of the [γ-^32P] ATP solution was 1×10^5 to 1×10^6 c.p.m. per nmol depending on what was needed to produce an optimal signal/noise ratio. Stocks of nonradioactive (“cold”) ATP were dissolved in 10 mM HEPES, and the pH of the resulting stock solutions was adjusted to 7.4. To measure the concentration of ATP, a sample of such a stock solution was diluted to 20 μM, and the absorbance of the diluted sample was measured at 259 nm. The absorbance of a 20 μM stock solution of ATP at 259 nm was about 0.31. The 1-mM solution of cold ATP was “spiked” with [γ-^32P] ATP to produce a radioactivity of 1×10^5 to 1×10^6 c.p.m. per nmol.
(§5) 1) The number of assay samples needed was determined based on, e.g., the following considerations: (i) each condition was assayed in duplicate; (ii) two controls containing peptide or protein substrate and ATP but no protein kinase were included to assess contamination by any free ATP not incorporated into substrate, alongside two controls lacking a peptide or protein substrate but containing ATP and protein kinase to correct for any incorporation of phosphate into the kinase itself (e.g., autophosphorylation); and (iii) a maximum of 40 samples were assayed manually at one time by a single person. Microcentrifuge tubes were label distinctly and were placed on ice.
(§6) 2) Suspend a wire mesh basket in a beaker containing a magnetic stir bar and not less than 5 ml of 75 mM phosphoric acid per assay sample or a minimum volume of 100 ml. Place this on a magnetic stirrer behind a plexiglass shield.
(§7) 3) Label 2 cm×2 cm squares of phosphocellulose paper corresponding to the samples to be pipetted into each microcentrifuge tube. Label the phosphocellulose paper using pencil, which was not affected by the solvents used to wash the papers at the end of the assay.
(§8) 4) Dilute the protein kinase in enzyme dilution buffer and place on ice.
(§9) 5) Pipette 5 μl of 10× concentrated assay buffer, 5 μl peptide or protein substrate (the two “no-substrate” control tubes had 5 μl water added instead of peptide or protein substrate), and 30 μl distilled water into each tube. Keep the tubes on ice.
(§10) 6) Add 5 μl diluted protein kinase to each tube, except for the two “no-enzyme” control tubes, which had 5 μl enzyme dilution buffer added, and still keeping the tubes on ice. In some cases, premixed “cocktails” of assay components were prepared containing peptide or protein substrate, assay buffer, and distilled water to limit the number of additions to each assay tube.
(§11) 7) Insert each tube into the water bath at intervals of 15 s to allow the assay mixture to reach 30° C. Begin the protein kinase reactions by adding 5 μl of 1 mM [γ-^32P]ATP to each tube at intervals of 15 s. Close each tube, vortex for 1 s to mix the contents and immediately replace in a rack in the water bath. Incubate for 10 min at 30° C.
(§12) 8) At 10 min after the addition of ATP, remove each tube from the water bath at intervals of 15 s.
(§13) 9) “Spot” […] of each reaction mixture onto the center of a 2-cm square of P81 phosphocellulose paper using forceps to handle the paper squares. Immediately immerse the paper into the 75 mM phosphoric acid contained in the wire mesh basket suspended in the beaker that is being stirred continuously with a magnetic stirrer. This was be done within 1 to 2 s, as this step terminated the reaction. […]

BRK = BRK (Homo sapiens (Human), UniProt Q13882); experiment: as above; settings: read-out: Activity of the protein kinase when treated with compound I-1 (% control)
Method: as §1, §2, §3, §4, §5, §6, §7, §8, §9, §10, §11, §12, §13

BTK [1] = molecular target: T1, BTK (Homo sapiens (Human), UniProt Q06187); experiment: as above; settings: read-out: Activity of the protein kinase when treated with compound I-1 (% control)
T1 sequence (Q06187 whole entry): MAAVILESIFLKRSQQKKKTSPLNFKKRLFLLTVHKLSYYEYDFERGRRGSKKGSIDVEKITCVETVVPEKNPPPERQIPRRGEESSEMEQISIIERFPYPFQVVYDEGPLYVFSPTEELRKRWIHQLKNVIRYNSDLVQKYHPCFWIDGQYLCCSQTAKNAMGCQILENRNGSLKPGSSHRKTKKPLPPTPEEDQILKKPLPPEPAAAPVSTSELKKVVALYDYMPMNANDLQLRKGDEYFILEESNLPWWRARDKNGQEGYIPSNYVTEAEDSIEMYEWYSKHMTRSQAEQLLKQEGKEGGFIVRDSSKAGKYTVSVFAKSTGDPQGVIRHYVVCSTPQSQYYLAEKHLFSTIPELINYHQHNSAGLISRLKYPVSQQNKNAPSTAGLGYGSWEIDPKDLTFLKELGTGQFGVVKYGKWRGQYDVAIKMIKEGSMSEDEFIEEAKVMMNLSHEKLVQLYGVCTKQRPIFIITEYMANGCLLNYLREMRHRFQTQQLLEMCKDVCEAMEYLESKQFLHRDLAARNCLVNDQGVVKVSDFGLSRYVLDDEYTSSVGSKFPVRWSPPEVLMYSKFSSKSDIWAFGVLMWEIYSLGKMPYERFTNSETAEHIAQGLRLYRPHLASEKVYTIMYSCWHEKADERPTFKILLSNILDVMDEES
Method: as §1, §2, §3, §4, §5, §6, §7, §8, §9, §10, §11, §12, §13

CSK = CSK (Homo sapiens (Human), UniProt P41240); experiment: as above; settings: read-out: Activity of the protein kinase when treated with compound I-1 (% control)
Sequence of CSK (P41240 whole entry): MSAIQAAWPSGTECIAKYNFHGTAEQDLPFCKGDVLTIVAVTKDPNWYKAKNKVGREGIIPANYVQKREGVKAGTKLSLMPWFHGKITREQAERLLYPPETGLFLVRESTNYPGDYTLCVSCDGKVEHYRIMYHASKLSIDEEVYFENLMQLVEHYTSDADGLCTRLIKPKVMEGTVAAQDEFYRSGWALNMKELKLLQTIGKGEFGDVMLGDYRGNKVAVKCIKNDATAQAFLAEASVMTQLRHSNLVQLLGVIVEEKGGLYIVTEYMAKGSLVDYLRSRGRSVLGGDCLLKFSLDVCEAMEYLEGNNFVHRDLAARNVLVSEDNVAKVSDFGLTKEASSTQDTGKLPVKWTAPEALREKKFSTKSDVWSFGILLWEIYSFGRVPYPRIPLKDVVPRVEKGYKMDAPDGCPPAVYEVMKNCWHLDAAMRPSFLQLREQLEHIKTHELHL
Method: as §1, §2, §3, §4, §5, §6, §7, §8, §9, §10, §11, §12, §13

DDR2 = DDR2 (Homo sapiens (Human), UniProt Q16832); experiment: as above; settings: read-out: Activity of the protein kinase when treated with compound I-1 (% control)
Sequence of DDR2 (Q16832 22-855): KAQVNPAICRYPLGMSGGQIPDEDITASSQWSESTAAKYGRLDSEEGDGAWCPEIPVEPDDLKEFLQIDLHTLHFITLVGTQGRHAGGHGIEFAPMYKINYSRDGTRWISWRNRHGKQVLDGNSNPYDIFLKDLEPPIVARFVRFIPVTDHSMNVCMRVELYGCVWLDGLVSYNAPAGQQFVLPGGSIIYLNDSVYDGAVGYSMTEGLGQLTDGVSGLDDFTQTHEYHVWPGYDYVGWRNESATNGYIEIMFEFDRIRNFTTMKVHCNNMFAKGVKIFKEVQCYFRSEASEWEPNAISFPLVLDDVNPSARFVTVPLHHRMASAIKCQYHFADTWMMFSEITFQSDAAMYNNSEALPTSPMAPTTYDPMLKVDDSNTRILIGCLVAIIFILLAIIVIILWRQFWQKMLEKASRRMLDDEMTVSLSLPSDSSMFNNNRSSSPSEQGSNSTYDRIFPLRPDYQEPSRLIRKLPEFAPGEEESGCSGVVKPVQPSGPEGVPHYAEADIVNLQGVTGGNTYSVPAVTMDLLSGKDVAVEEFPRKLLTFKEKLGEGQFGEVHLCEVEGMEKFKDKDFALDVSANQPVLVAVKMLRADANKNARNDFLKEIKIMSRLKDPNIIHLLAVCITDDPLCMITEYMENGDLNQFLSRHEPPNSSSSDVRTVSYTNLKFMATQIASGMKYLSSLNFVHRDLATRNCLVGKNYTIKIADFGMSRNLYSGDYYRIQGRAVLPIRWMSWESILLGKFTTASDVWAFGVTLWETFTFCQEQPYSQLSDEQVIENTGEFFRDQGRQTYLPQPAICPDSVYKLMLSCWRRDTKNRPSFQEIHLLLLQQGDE
Method: as §1, §2, §3, §4, §5, §6, §7, §8, §9, §10, §11, §12, §13

EPH-A2 = EPH-A2 (Homo sapiens (Human), UniProt P29317); experiment: as above; settings: read-out: Activity of the protein kinase when treated with compound I-1 (% control)
Sequence of EPH-A2 (P29317 24-976): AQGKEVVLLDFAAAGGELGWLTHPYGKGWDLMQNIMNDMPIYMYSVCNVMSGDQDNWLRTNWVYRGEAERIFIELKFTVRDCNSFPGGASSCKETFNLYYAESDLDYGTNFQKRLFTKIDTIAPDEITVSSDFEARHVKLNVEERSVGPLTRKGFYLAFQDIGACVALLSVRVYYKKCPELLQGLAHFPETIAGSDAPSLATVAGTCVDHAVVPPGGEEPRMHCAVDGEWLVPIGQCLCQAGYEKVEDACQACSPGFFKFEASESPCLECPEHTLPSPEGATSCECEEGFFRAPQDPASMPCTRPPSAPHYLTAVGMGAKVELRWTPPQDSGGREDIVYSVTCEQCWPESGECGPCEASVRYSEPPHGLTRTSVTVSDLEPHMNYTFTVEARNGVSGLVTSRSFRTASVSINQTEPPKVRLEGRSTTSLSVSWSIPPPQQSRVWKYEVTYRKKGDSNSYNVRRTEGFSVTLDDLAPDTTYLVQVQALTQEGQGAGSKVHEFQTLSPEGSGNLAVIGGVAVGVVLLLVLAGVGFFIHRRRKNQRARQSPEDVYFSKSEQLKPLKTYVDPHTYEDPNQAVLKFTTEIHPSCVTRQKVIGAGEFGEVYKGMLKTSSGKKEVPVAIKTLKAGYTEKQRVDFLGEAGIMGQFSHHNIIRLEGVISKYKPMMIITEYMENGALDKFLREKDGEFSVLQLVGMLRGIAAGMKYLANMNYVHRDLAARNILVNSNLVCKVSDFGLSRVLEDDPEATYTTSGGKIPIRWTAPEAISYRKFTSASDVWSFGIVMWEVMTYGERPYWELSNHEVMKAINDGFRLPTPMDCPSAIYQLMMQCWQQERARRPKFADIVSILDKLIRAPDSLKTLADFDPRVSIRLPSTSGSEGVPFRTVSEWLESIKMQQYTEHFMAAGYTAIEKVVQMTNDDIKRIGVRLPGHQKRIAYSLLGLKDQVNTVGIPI
Method: as §1, §2, §3, §4, §5, §6, §7, §8, §9, §10, §11, §12, §13

EPH-B1 = EPH-B1 (Homo sapiens (Human), UniProt P54762); experiment: as above; settings: read-out: Activity of the protein kinase when treated with compound I-1 (% control)
Method: as §1, §2, §3, §4, §5, §6, §7, §8, §9, §10, §11, §12, §13

FGF-R1 = FGF-R1 (Homo sapiens (Human), UniProt P11362); experiment: as above; settings: read-out: Activity of the protein kinase when treated with compound I-1 (% control)
Method: as §1, §2, §3, §4, §5, §6, §7, §8, §9, §10, §11, §12, §13

HER4 = HER4 (Homo sapiens (Human), UniProt Q15303); experiment: as above; settings: read-out: Activity of the protein kinase when treated with compound I-1 (% control)
Method: as §1, §2, §3, §4, §5, §6, §7, §8, §9, §10, §11, §12, §13

Lck = Lck (Homo sapiens (Human), UniProt P06239); experiment: as above; settings: read-out: Activity of the protein kinase when treated with compound I-1 (% control)
Sequence of Lck (P06239 whole entry): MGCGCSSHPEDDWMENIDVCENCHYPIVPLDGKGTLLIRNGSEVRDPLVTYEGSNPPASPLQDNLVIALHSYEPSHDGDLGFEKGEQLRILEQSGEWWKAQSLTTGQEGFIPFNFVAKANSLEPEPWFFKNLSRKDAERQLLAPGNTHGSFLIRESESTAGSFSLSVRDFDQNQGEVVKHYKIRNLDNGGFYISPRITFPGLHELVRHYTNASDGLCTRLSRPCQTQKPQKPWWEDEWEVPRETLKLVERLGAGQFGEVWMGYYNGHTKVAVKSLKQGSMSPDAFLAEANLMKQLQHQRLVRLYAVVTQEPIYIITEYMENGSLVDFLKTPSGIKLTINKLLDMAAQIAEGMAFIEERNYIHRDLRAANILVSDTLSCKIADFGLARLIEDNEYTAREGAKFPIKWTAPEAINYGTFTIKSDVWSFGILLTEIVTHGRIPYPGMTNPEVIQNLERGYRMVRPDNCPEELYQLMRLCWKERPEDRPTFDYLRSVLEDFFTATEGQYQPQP
Method: as §1, §2, §3, §4, §5, §6, §7, §8, §9, §10, §11, §12, §13

Src = Src (Homo sapiens (Human), UniProt P12931); experiment: as above; settings: read-out: Activity of the protein kinase when treated with compound I-1 (% control)
Method: as §1, §2, §3, §4, §5, §6, §7, §8, §9, §10, §11, §12, §13

TIE2 = TIE2 (Homo sapiens (Human), UniProt Q02763); experiment: as above; settings: read-out: Activity of the protein kinase when treated with compound I-1 (% control)
Method: as §1, §2, §3, §4, §5, §6, §7, §8, §9, §10, §11, §12, §13

VEG-FR = experiment: as above
Method: as §1, §2, §3, §4, §5, §6, §7, §8, §9, §10, §11, §12, §13

YES1 = YES1 (Homo sapiens (Human), UniProt P07947); experiment: as above; settings: read-out: Activity of the protein kinase when treated with compound I-1 (% control)
Sequence of YES1 (P07947 whole entry): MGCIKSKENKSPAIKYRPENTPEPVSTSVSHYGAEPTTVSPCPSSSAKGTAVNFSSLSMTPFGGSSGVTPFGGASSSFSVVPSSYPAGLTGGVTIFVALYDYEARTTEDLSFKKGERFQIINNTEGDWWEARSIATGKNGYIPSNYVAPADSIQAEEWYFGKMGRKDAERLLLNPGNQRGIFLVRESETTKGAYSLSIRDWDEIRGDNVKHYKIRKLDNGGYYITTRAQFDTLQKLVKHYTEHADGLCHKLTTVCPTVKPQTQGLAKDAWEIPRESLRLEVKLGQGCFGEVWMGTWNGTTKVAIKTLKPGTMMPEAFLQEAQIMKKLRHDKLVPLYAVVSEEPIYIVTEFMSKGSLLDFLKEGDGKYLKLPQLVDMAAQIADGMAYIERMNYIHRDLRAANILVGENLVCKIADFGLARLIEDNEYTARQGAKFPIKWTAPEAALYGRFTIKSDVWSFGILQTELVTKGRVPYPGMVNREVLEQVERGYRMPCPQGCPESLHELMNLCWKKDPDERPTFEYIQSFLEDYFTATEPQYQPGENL
Method: as §1, §2, §3, §4, §5, §6, §7, §8, §9, §10, §11, §12, §13

p38a MAPK = p38a MAPK (Homo sapiens (Human), UniProt Q16539); experiment: as above; settings: read-out: Activity of the protein kinase when treated with compound I-1 (% control)
Sequence of p38a MAPK (Q16539 whole entry, looked up): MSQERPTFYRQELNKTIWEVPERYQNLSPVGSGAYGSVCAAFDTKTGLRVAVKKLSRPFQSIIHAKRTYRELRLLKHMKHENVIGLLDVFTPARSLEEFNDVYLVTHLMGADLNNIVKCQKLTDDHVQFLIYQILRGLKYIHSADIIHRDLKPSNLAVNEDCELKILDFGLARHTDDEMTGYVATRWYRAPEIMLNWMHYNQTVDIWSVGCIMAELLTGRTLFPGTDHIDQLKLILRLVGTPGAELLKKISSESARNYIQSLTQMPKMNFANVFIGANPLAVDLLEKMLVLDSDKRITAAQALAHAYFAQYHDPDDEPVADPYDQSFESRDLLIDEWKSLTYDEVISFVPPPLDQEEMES
Method: as §1, §2, §3, §4, §5, §6, §7, §8, §9, §10, §11, §12, §13

BTK [2] = molecular target: T1, BTK; experiment: Protein kinase IC50 determination (method developed by Invitrogen Technology); settings: concentration of ATP: Km for ATP
Method: (§14) In some experiments, inhibitory activities of the compounds described herein against select protein kinases were determined as IC50 values (e.g., IC50 values in Table 3) using methods known in the art (e.g., the method developed by Invitrogen Technology).

HCK = HCK (Homo sapiens (Human), UniProt P08631); experiment: as above; settings: concentration of ATP: Km for ATP
Sequence of HCK (P08631 whole entry): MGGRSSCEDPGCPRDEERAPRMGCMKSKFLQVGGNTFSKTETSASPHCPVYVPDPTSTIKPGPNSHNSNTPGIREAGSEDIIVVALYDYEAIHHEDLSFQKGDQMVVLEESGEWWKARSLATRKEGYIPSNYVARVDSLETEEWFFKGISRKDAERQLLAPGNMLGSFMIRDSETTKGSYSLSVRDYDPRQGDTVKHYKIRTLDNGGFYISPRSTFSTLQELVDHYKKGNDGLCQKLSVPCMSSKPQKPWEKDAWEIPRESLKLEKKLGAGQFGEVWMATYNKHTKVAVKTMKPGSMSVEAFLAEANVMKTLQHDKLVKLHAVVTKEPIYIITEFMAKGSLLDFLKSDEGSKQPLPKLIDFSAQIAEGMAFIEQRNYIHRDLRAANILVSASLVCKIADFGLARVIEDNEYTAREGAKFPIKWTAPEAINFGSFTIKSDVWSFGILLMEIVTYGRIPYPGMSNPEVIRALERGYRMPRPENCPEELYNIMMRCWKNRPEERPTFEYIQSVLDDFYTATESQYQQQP
Method: as §14

[3] = 0.1 μM of compound I-1, DMSO control = 100%
[4] = 1 μM of compound I-1, DMSO control = 100%

## CCN1CCN(c2ccc(Nc3cc(-n4ccnc4Nc4c(C)cccc4C)ncn3)cc2)CC1 [Compound I-1, 6-(2-((2,6-Dimethylphenyl)amino)-1H-imidazol-1-yl)-N-(4-(4-ethylpiperazin-1-yl)phenyl)pyrimidin-4-amine]
ABL; [3]
  remaining activity at 0.1 µM: 84%
ABL; [4]
  remaining activity at 1 µM: 48%
BRK; [3]
  remaining activity at 0.1 µM: 74%
BRK; [4]
  remaining activity at 1 µM: 16%
BTK [1]; [3]
  remaining activity at 0.1 µM: 85%
BTK [1]; [4]
  remaining activity at 1 µM: 30%
CSK; [3]
  remaining activity at 0.1 µM: 94%
CSK; [4]
  remaining activity at 1 µM: 67%
DDR2; [3]
  remaining activity at 0.1 µM: 46%
DDR2; [4]
  remaining activity at 1 µM: 12%
EPH-A2; [3]
  remaining activity at 0.1 µM: 99%
EPH-A2; [4]
  remaining activity at 1 µM: 59%
EPH-B1; [3]
  remaining activity at 0.1 µM: 86%
EPH-B1; [4]
  remaining activity at 1 µM: 16%
FGF-R1; [3]
  remaining activity at 0.1 µM: 67%
FGF-R1; [4]
  remaining activity at 1 µM: 30%
HER4; [3]
  remaining activity at 0.1 µM: 97%
HER4; [4]
  remaining activity at 1 µM: 76%
Lck; [3]
  remaining activity at 0.1 µM: 24%
Lck; [4]
  remaining activity at 1 µM: 13%
Src; [3]
  remaining activity at 0.1 µM: 43%
Src; [4]
  remaining activity at 1 µM: 13%
TIE2; [3]
  remaining activity at 0.1 µM: 82%
TIE2; [4]
  remaining activity at 1 µM: 85%
VEG-FR; [3]
  Activity of the protein kinase when treated with compound I-1 (% control): 81 % control
VEG-FR; [4]
  Activity of the protein kinase when treated with compound I-1 (% control): 31 % control
YES1; [3]
  remaining activity at 0.1 µM: 41%
YES1; [4]
  remaining activity at 1 µM: 8%
p38a MAPK; [3]
  remaining activity at 0.1 µM: 87%
p38a MAPK; [4]
  remaining activity at 1 µM: 28%
BTK [2]
  pIC50: 6.47
HCK
  pIC50: 6.95

## COCCOc1ccc(Nc2cc(-n3ccnc3Nc3c(C)cccc3Cl)ncn2)cc1 [Compound I-2]
BTK [2]
  pIC50: 5.73
HCK
  pIC50: 6.51

## COCCOc1ccc(Nc2cc(-n3ccnc3Nc3c(C)cccc3C)ncn2)cc1 [Compound I-3]
BTK [2]
  pIC50: 5.00
HCK
  pIC50: 5.62

## Cc1cccc(Cl)c1Nc1nccn1-c1cc(Nc2cnn(C)c2)ncn1 [Compound I-4]
BTK [2]
  pIC50: < 5.00
HCK
  pIC50: 5.52
